Patent US20100029542A1, “PROTEIN STERILISATION BY RADIATION AND ADDITION OF A STABILISING COMPOSITION” (priority 2006, published 2010)
Read-outs that look alike come from different tables or passages of the source.

Assays:
catalase = biological target: T1, catalase (Bos taurus, UniProt P00432); test: Activity recovery of catalase in dry formulations following gamma irradiation; format: physicochemical, bovine; conditions: Table 10, superoxide scavengers; catalase 100 μg mL^−1 prior to drying; dry; 25-40 kGy
T1 construct: Catalase (from bovine liver, Sigma C9322, 2380 U /mg solid); purchased Sigma C9322; host or cells: bovine liver
T1 sequence (P00432 2-527 limits assumed): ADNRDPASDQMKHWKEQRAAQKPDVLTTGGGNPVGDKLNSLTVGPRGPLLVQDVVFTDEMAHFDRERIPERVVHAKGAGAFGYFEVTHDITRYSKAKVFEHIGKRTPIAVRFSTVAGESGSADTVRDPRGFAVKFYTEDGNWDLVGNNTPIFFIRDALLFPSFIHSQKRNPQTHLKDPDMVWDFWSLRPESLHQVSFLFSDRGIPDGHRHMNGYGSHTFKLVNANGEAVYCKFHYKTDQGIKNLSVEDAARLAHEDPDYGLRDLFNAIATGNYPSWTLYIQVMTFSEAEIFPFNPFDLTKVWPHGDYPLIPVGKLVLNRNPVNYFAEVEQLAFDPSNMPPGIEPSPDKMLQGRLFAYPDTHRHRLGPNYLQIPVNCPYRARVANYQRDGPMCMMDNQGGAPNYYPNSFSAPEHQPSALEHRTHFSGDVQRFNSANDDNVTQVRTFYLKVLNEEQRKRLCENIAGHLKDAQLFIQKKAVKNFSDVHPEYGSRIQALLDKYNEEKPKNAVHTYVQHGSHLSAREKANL
Experimental: (§1) In each example, an aqueous solution of a protein was prepared with selected additives in an Eppendorf tube or in a glass vial. Water was removed from the formulation by drying under a stream of nitrogen at 30° C. and subsequent incubation at atmospheric pressure in the presence of a dessicant. The Eppendorf tubes or the glass vials were sealed and delivered to an industrial sterilisation service for gamma irradiation, with a dose range typical for sterile medical products. The gamma-irradiated samples were reconstituted on their return and analysed for protein activity or structural integrity. The results were compared with those achieved using control (i.e. non-irradiated) samples.
(§2) The dry samples (approx. 20 μg in an Eppendorf tube) were gamma-irradiated by an industry-standard commercial sterilising service provided by Isotron PLC (Swindon, Wilts, UK), using a Cobalt 60 gamma source at ambient temperature. The radiation dose was in the range of 25-40 kGy.
The original solutions (i.e. solutions prior to drying) contained 100 μg mL^−1 of catalase and typically the total of 100 mM of protective compounds (i.e. 100 mM in case of a single compound, 50 mM+50 mM in case of two compounds, 33.3 mM+33.3 mM+33.3 mM in the case of three compounds etc.). The solutions were dried and gamma irradiated. Following the gamma irradiation, the samples, both pre- and post-gamma irradiated, were assayed for […] activity. This was performed according to the following procedure:
Water was added to the sample to achieve 100 μg mL^−1 of catalase. 100 μL of the solution was added to a mixture of 18 mL of PBS and 2 mL of hydrogen peroxide (30 mM in water) in a 125 mL polypropylene pot and mixed. The resulting mixture was incubated at room temperature precisely for 30 min. In the meantime, the following reagents were mixed in a plastic cuvette for spectrophotometric measurements: • 2.73 mL of citrate/phosphate buffer (0.1 M, pH 5.0) • 100 μL of tetramethylbenzidine (TMB) (3 mg/mL, dissolved in dimethyl sulphoxide (DMSO)) • 100 μL of lactoperoxidase
Following the 30 min incubation period, 70 μL of the catalase containing mixture was added to the cuvette and absorbance was read in approximately 30 s. The results were expressed as percentage recovery, by reference to the absorbance measured in the fresh samples (i.e. prior to incubation at increased temperature).

Sandostatin = test: Recovery of structural integrity of Sandostatin in dry formulations following gamma irradiation (HPLC); format: physicochemical; conditions: structural integrity by HPLC, excipient:Sandostatin weight ratio 10:1, 25-40 kGy
Experimental: as §1, §2
Mobile phase A was 0.1 M triethylamine adjusted to pH 2.3 with phosphoric acid. Mobile phase B was acetonitrile. The mobile phases were filtered prior to their use. The following linear gradient was used: time 0: 90% A+10% B; time 35 min: 60% A+40% B. The liquid chromatograph (Agilent 1100 series) was equipped with a 214 nm detector, guard column and a 4.6×150 mm C18 column with a granulometry of 5 μm and a porosity of 30 nm, maintained at ambient temperature. The flow rate was maintained at 1.0 mL min^−1. Injection volume was 50 μL (typically sandostatin at 200 μg mL^−1). Results were expressed as % of main peak area (i.e. area of the peak corresponding to intact sandostatin measured in the gamma irradiated sample with respect to that measured in non-irradiated sample of identical composition). A chromatogram of a standard solution of sandostatin was recorded after every 12 samples to ensure that no drift in the position of the major peak had occurred. The control measurements ruled out any ambiguity in interpreting the chromatograms.

[1] = cited from earlier work
human growth hormone [2] = biological target: T2, human growth hormone (Homo sapiens, UniProt P01241); test: Recovery of structural integrity of human growth hormone in dry formulations following gamma irradiation (HPLC); format: physicochemical; conditions: structural integrity by HPLC, human growth hormone 2.5 mg mL^−1 prior to drying, 25-40 kGy
T2 construct: purchased National Institute of Biological Standards and Control; further samples on prescription from a GP surgery
Experimental: as §1, §2
Mobile phase was prepared by mixing 71 parts (by volume) of a solution of TRIS (0.05 M, in water adjusted with hydrochloric acid to a pH of 7.5) and 29 parts (by volume) of n-propylalcohol. The mobile phase was filtered prior to its use. The liquid chromatograph (Agilent 1100 series) was equipped with a 214 nm detector and a 4.6×250 mm column (Phenomenex 00G-4167-E0) packed with butylsilyl silica gel with a granulometry of 5 μm and a porosity of 30 nm, maintained at 45° C. The flow rate was maintained at 0.5 mL min^−1. 15 μL of aqueous samples of human growth hormone (typically 1-2.5 mg mL^−1) were injected. Results were expressed as % of peak area corresponding to the gamma irradiated sample with respect to that measured in non-irradiated sample.

human growth hormone [3] = biological target: T2, human growth hormone; test: as above; format: physicochemical; conditions: Table 4, prior-art antioxidants; structural integrity by HPLC; human growth hormone 2.5 mg mL^−1 prior to drying; dry; 25-40 kGy, ambient temperature

T2 sequence (P01241 27-217): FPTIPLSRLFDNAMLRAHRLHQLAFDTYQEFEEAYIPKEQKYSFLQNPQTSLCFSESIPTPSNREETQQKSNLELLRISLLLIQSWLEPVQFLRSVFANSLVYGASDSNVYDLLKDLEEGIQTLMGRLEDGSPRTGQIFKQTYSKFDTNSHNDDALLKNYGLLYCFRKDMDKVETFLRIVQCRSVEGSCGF

CSCC[C@H](N)C(=O)O [Methionine]
Enzyme activity remaining after gamma-irradiation (catalase): 44.3%
Enzyme activity remaining after gamma-irradiation (Sandostatin; Table 8, singlet oxygen scavengers): 91.1%
Enzyme activity remaining after gamma-irradiation (Sandostatin; Table 12, superoxide scavengers): 91.1%
Rate of reaction with singlet oxygen ([1]; Table 5): 1.3e+07 M⁻¹ s⁻¹
Rate of reaction with singlet oxygen ([1]; Table 7): 1.3e+07 M⁻¹ s⁻¹
Rate of reaction with singlet oxygen ([1]; Table 8): 1.3e+07 M⁻¹ s⁻¹
Structural integrity remaining after gamma-irradiation (HPLC) (human growth hormone [2]; Table 4, prior-art antioxidants, ambient temperature): 69.7%
Structural integrity remaining after gamma-irradiation (HPLC) (human growth hormone [2]; Table 7, singlet oxygen scavengers): 69.7%
Structural integrity remaining after gamma-irradiation (HPLC) (human growth hormone [2]; Table 11, superoxide scavengers): 69.7%
Structural integrity remaining after gamma-irradiation (HPLC) (human growth hormone [3]): 69.7%
